Common to all, as to assay: biochemical
What all share (set-up): species or system human cell line lysate

For assay [1], the target named is Phosphatidylinositol 4,5-bisphosphate 3-kinase catalytic subunit beta ; PIK3CB ; P42338 (Homo sapiens, UniProt P42338).
The target of assay [2] is Dual specificity tyrosine-phosphorylation-regulated kinase 1A ; DYRK1A ; Q13627 (Homo sapiens, UniProt Q13627).
Assay [3] has as its target Serine/threonine-protein kinase MRCK alpha ; CDC42BPA ; Q5VT25 (Homo sapiens, UniProt Q5VT25).
For assay [4], the target named is Serine/threonine-protein kinase ULK2 ; ULK2 ; Q8IYT8 (Homo sapiens, UniProt Q8IYT8).
Assay [5] concerns the target Focal adhesion kinase 1 ; PTK2 ; Q05397 (Homo sapiens, UniProt Q05397).
Assay [6] deals with Isoform Beta of cGMP-dependent protein kinase 1 ; PRKG1 ; Q13976-2 (Homo sapiens, UniProt Q13976).
The target in assay [7] is Serine/threonine-protein kinase 4 ; STK4 ; Q13043 (Homo sapiens, UniProt Q13043).
The target in assay [8] is Calcium/calmodulin-dependent protein kinase type II subunit alpha ; CAMK2A ; Q9UQM7 (Homo sapiens, UniProt Q9UQM7).
For assay [9], the target named is Phosphorylase b kinase gamma catalytic chain, liver/testis isoform ; PHKG2 ; P15735 (Homo sapiens, UniProt P15735).
The target of assay [10] is Serine/threonine-protein kinase TBK1 ; TBK1 ; Q9UHD2 (Homo sapiens, UniProt Q9UHD2).
The target of assay [11] is Mitogen-activated protein kinase kinase kinase kinase 1 ; MAP4K1 ; Q92918 (Homo sapiens, UniProt Q92918).
The target of assay [12] is Aurora kinase C ; AURKC ; Q9UQB9 (Homo sapiens, UniProt Q9UQB9).
Assay [13] addresses Isoform Delta 12 of Calcium/calmodulin-dependent protein kinase type I ; CAMK2D ; Q13557-12 (Homo sapiens, UniProt Q13557).
The target of assay [14] is Isoform 2 of Protein-tyrosine kinase 2-beta ; PTK2B ; Q14289-2 (Homo sapiens, UniProt Q14289).
The target in assay [15] is Microtubule-associated serine/threonine-protein kinase 3 ; MAST3 ; O60307 (Homo sapiens, UniProt O60307).
Assay [16] deals with RAC-beta serine/threonine-protein kinase ; AKT2 ; P31751 (Homo sapiens, UniProt P31751).
Assay [17] has as its target Interleukin-1 receptor-associated kinase 4 ; IRAK4 ; Q9NWZ3 (Homo sapiens, UniProt Q9NWZ3).
Assay [18] has as its target Isoform 3 of Membrane-associated tyrosine- and threonine-specific cdc2 ; PKMYT1 ; Q99640-3 (Homo sapiens, UniProt Q99640).
Assay [19] addresses Citron Rho-interacting kinase ; CIT ; O14578 (Homo sapiens, UniProt O14578).
Where [20] appears, read: read-out: BAY-1143572 (10 µM) / %Intensity relative to DMSO.
[21] abbreviates: read-out: BAY-1251152 (10 µM) / %Intensity relative to DMSO.

Structures are written as SMILES. Read-outs that look alike come from different tables or passages of the source.

Chain of Calcium/calmodulin-dependent protein kinase type II subunit alpha ; CAMK2A ; Q9UQM7 (Q9UQM7 whole entry, canonical isoform, one chain of several): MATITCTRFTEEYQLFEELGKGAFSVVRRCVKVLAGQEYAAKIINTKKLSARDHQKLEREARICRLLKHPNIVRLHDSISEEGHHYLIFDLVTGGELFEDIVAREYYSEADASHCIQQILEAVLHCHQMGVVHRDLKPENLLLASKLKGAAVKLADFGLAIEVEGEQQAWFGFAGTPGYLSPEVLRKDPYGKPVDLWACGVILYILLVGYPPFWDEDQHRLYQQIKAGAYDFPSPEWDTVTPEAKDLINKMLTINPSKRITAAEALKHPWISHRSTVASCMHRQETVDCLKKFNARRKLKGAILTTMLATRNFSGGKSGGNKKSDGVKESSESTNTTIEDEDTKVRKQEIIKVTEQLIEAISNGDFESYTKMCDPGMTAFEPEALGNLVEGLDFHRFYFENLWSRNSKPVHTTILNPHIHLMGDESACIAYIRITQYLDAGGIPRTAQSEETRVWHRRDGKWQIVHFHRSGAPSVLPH
Chain of Serine/threonine-protein kinase ULK2 ; ULK2 ; Q8IYT8 (Q8IYT8 whole entry, one chain of several): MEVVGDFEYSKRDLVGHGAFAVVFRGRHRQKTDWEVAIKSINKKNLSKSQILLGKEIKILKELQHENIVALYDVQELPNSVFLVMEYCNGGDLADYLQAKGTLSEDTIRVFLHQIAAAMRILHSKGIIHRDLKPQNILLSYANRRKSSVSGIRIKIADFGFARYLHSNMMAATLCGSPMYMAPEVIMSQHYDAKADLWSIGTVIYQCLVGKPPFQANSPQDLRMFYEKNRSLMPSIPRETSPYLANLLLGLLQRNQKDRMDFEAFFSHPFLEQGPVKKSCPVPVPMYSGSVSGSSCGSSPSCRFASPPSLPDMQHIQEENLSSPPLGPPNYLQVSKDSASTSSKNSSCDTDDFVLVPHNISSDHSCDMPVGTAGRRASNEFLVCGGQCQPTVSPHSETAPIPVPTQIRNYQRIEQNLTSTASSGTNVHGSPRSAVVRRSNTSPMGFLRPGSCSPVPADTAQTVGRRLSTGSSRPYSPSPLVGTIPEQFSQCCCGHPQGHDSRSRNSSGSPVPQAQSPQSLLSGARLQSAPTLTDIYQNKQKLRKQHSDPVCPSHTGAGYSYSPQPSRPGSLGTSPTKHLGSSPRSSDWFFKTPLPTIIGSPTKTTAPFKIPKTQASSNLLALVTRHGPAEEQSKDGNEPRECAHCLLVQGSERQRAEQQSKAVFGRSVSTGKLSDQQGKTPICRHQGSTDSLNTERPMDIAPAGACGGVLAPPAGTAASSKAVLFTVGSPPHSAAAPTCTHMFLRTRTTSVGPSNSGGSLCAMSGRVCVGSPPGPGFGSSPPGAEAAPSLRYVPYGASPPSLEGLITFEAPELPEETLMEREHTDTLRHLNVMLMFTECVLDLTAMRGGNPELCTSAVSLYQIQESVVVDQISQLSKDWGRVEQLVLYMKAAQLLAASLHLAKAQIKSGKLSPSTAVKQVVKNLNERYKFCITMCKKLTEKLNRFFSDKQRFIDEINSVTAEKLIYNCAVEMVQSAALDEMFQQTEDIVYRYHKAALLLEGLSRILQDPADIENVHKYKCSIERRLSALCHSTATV
Chain of Isoform 3 of Membrane-associated tyrosine- and threonine-specific cdc2 ; PKMYT1 ; Q99640-3 (Q99640 whole entry, canonical isoform, one chain of several): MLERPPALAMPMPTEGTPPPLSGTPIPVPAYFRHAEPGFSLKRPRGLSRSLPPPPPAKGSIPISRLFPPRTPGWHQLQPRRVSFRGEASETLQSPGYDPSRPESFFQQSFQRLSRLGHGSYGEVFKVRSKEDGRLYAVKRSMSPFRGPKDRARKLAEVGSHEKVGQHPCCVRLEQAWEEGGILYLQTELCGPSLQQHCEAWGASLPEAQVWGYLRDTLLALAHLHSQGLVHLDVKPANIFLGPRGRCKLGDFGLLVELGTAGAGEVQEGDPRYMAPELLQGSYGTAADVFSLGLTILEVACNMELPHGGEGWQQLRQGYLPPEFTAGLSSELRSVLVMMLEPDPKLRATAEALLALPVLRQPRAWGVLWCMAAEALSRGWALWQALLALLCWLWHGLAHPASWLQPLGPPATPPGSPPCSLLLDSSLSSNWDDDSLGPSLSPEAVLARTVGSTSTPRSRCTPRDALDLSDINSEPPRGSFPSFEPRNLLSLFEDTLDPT
Chain of RAC-beta serine/threonine-protein kinase ; AKT2 ; P31751 (P31751 whole entry, one chain of several): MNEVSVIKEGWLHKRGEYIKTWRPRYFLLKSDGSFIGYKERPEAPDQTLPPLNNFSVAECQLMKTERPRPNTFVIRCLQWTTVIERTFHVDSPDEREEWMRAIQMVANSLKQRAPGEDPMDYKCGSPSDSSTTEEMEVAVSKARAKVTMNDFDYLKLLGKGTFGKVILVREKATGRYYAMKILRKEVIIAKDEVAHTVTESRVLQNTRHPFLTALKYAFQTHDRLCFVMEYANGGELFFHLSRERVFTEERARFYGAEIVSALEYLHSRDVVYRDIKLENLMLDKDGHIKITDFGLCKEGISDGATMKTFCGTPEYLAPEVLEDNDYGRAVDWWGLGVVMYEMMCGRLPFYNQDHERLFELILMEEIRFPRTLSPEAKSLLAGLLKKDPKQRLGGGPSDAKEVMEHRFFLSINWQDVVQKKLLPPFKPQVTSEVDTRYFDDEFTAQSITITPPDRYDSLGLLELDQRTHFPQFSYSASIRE
Chain of Serine/threonine-protein kinase 4 ; STK4 ; Q13043 (Q13043 whole entry, one chain of several): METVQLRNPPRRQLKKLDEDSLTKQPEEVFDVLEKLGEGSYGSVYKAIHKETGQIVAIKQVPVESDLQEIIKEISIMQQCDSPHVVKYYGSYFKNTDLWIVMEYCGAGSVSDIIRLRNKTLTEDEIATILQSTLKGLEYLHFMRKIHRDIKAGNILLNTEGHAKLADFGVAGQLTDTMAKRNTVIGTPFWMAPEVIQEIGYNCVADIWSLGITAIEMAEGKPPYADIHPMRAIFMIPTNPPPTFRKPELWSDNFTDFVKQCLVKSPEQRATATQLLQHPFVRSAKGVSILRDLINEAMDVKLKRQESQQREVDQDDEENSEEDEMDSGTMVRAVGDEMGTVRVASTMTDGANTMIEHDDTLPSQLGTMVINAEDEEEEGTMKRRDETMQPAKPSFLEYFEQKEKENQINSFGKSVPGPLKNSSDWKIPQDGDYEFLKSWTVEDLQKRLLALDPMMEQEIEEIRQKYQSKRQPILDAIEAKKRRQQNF
Chain of Aurora kinase C ; AURKC ; Q9UQB9 (Q9UQB9 whole entry, canonical isoform): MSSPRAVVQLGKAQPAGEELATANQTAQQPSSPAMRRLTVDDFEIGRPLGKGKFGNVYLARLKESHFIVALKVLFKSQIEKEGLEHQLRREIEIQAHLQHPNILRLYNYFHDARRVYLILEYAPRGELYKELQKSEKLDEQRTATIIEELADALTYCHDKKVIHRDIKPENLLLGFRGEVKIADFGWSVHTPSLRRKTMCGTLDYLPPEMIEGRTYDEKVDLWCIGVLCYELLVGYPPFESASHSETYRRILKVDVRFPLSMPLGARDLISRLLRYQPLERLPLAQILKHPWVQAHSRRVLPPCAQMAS
Chain of Isoform Delta 12 of Calcium/calmodulin-dependent protein kinase type I ; CAMK2D ; Q13557-12 (Q13557 whole entry, canonical isoform, one chain of several): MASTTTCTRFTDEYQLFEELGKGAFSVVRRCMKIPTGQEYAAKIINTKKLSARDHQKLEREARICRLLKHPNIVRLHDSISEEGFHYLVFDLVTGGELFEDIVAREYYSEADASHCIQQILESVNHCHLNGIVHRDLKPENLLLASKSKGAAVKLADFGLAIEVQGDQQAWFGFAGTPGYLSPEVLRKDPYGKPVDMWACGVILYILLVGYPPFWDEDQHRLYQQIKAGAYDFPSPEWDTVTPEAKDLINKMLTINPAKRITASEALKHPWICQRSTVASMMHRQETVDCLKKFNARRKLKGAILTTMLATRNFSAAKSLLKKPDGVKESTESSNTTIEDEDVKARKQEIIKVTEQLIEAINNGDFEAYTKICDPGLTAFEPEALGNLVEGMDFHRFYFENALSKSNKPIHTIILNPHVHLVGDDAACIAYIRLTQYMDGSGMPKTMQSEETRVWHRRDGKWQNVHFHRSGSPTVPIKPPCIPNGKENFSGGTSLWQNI
Chain of Isoform Beta of cGMP-dependent protein kinase 1 ; PRKG1 ; Q13976-2 (Q13976 whole entry, canonical isoform): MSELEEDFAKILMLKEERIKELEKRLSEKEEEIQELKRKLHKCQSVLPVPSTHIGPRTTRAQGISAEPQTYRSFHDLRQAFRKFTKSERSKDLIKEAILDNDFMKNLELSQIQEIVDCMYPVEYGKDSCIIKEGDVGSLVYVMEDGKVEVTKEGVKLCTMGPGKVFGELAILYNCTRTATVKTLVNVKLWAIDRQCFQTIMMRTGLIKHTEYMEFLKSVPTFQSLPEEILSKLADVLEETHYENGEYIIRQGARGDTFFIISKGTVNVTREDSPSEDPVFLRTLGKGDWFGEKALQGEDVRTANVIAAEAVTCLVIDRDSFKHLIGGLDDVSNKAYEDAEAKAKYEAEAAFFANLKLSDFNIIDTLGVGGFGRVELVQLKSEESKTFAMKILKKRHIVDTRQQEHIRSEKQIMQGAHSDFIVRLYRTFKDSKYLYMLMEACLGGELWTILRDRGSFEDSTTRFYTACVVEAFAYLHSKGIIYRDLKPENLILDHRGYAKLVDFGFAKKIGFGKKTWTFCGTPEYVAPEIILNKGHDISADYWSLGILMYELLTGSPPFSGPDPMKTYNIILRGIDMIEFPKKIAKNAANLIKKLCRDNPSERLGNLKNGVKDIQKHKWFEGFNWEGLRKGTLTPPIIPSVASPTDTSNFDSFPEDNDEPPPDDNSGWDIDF
Chain of Interleukin-1 receptor-associated kinase 4 ; IRAK4 ; Q9NWZ3 (Q9NWZ3 whole entry, canonical isoform): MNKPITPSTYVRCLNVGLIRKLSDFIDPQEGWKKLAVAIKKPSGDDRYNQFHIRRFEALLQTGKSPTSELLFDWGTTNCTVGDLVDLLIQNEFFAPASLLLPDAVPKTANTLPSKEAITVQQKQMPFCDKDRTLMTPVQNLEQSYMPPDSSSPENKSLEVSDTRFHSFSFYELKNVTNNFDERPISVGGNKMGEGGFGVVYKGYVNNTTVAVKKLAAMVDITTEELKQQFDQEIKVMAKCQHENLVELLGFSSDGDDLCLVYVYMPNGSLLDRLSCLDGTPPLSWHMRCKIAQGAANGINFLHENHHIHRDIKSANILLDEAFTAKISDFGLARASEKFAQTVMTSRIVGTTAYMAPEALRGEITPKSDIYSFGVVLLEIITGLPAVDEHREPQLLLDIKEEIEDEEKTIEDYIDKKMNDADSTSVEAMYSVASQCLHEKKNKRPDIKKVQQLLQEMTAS

Regarding `COc1cc(F)ccc1-c1ncnc(Nc2cccc(C[S@](C)(=N)=O)c2)n1` [BAY-1143572], the remaining activity at 10 µM in assay [1] (setting [20]) was determined as 83.7%; in [2] (setting [20]) it was 76.3%; in [3] (setting [20]), 97.1%; in [4] (setting [20]), 92.9%; in [5] (setting [20]), 102%; in assay [6] (setting [20]) it was 130%. The remaining activity at 10 µM was 108% in assay [7] (setting [20]); 130% in assay [8] (setting [20]); 107% in [9] (setting [20]); 94.7% in assay [10] (setting [20]); 101% in assay [11] (setting [20]); 105% in [12] (setting [20]). In addition, the remaining activity at 10 µM worked out at 124% in assay [13] (setting [20]); 100% in assay [14] (setting [20]); 79.4% in assay [15] (setting [20]); 117% in assay [16] (setting [20]); 121% in assay [17] (setting [20]); 117% in assay [18] (setting [20]). In addition, the remaining activity at 10 µM in assay [19] (setting [20]) came to 99.8%.
In the case of `COc1cc(F)ccc1-c1cc(Nc2cc(CS(C)(=N)=O)ccn2)ncc1F` (centres unmarked) [BAY-1251152], the remaining activity at 10 µM came to 57.7% in [1] (setting [21]); 60.2% in assay [2] (setting [21]); 107% in assay [3] (setting [21]); 104% in [4] (setting [21]); 99.3% in assay [5] (setting [21]); 117% in assay [6] (setting [21]). The remaining activity at 10 µM in assay [7] (setting [21]) is 94.2%; in assay [8] (setting [21]) it was 115%; in assay [9] (setting [21]), 100%; in assay [10] (setting [21]) it was 94%; in [11] (setting [21]) it was 71.6%; in assay [12] (setting [21]), 41.7%. Besides, the remaining activity at 10 µM was found to be 106% in [13] (setting [21]); 98.1% in [14] (setting [21]); 82.9% in assay [15] (setting [21]); 119% in [16] (setting [21]); 112% in [17] (setting [21]); 107% in assay [18] (setting [21]). The remaining activity at 10 µM in assay [19] (setting [21]) worked out at 92.5%.

Values taken from publication doi:10.1101/2024.08.13.607785v1 (biorxiv, 2024).
